Laboratory results as given in ChEMBL document CHEMBL1201862, “PubChem BioAssay data set” (2004).
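Tested at 5 concentrations; 48 h exposure; 96-well plates; endpoints linearly interpolated, else capped at highest concentration. GI50: concentration for 50% inhibition of growth.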 The source made the active and inactive calls. Cut-off read from the data, not from the text of the source: active = GI50 up to about 1.1 µM and inactive = higher.

Tests used:
Test in all cases: NCI tumour cell line growth inhibition, 48 h
PC-3 = tested on: PC-3
CAKI-1 = tested on: CAKI-1
TK-10 = tested on: TK-10
SK-MEL-2 = tested on: SK-MEL-2
BT-549 = tested on: BT-549
HOP-92 = tested on: HOP-92
NCI-H460 = tested on: NCI-H460
UACC-62 = tested on: UACC-62
KM12 = tested on: KM12
NCI-H522 = tested on: NCI-H522
MCF7 = tested on: MCF7
HCT-116 = tested on: HCT-116
HT-29 = tested on: HT-29
HCT-15 = tested on: HCT-15
HOP-62 = tested on: HOP-62
RPMI-8226 = tested on: RPMI-8226
T47D = tested on: T47D
SF-539 = tested on: SF-539
OVCAR-3 = tested on: OVCAR-3

SMILES | GI50 (PC-3) | GI50 (CAKI-1) | GI50 (TK-10) | GI50 (SK-MEL-2) | GI50 (BT-549) | GI50 (HOP-92) | GI50 (NCI-H460) | GI50 (UACC-62) | GI50 (KM12) | GI50 (NCI-H522) | GI50 (MCF7) | GI50 (HCT-116) | GI50 (HT-29) | GI50 (HCT-15) [µM] | GI50 (HOP-62) | GI50 (RPMI-8226) | GI50 (T47D) | GI50 (SF-539) | GI50 (OVCAR-3)
Oc1ccc(O)c(Sc2nnc(CCCCCCCCc3nnc(Sc4cc(O)ccc4O)o3)o2)c1 | > 100 µM (inactive) | 28.8 µM (inactive) | > 100 µM (inactive) | > 100 µM (inactive) | 74.8 µM (inactive) | 24 µM (inactive) | 72.9 µM (inactive) | 47.5 µM (inactive) | 26.7 µM (inactive) | 23.8 µM (inactive) | 33.8 µM (inactive) | 18.1 µM (inactive) | > 100 µM (inactive) | 88.7 | > 100 µM (inactive) | 23.1 µM (inactive) | – | – | –
O=C(c1ccccc1)N(CCCCNC(=O)C(F)(F)F)CCCNC(=O)C(F)(F)F | – | > 100 µM (inactive) | > 100 µM (inactive) | – | > 100 µM (inactive) | > 100 µM (inactive) | > 100 µM (inactive) | > 100 µM (inactive) | > 100 µM (inactive) | > 100 µM (inactive) | > 100 µM (inactive) | > 100 µM (inactive) | > 100 µM (inactive) | > 100 | – | > 100 µM (inactive) | > 100 µM (inactive) | > 100 µM (inactive) | –
Cc1cccc2c1nc1n2C(=O)c2ccccc2-1 | > 100 µM (inactive) | > 100 µM (inactive) | > 100 µM (inactive) | > 100 µM (inactive) | > 100 µM (inactive) | > 100 µM (inactive) | > 100 µM (inactive) | > 100 µM (inactive) | > 100 µM (inactive) | > 100 µM (inactive) | > 100 µM (inactive) | > 100 µM (inactive) | > 100 µM (inactive) | > 100 | – | > 100 µM (inactive) | – | > 100 µM (inactive) | > 100 µM (inactive)
C/C(=N\NS(=O)(=O)c1ccc(C)cc1)c1c(O)cc(C)oc1=O | – | > 100 µM (inactive) | > 100 µM (inactive) | > 100 µM (inactive) | – | > 100 µM (inactive) | > 100 µM (inactive) | > 100 µM (inactive) | > 100 µM (inactive) | – | – | > 100 µM (inactive) | > 100 µM (inactive) | > 100 | > 100 µM (inactive) | – | – | > 100 µM (inactive) | –
Cc1ccc2nc(CN(CCO)CCO)cc(=O)n2c1 | > 100 µM (inactive) | > 100 µM (inactive) | > 100 µM (inactive) | > 100 µM (inactive) | > 100 µM (inactive) | > 100 µM (inactive) | > 100 µM (inactive) | > 100 µM (inactive) | > 100 µM (inactive) | > 100 µM (inactive) | > 100 µM (inactive) | > 100 µM (inactive) | > 100 µM (inactive) | > 100 | > 100 µM (inactive) | – | – | > 100 µM (inactive) | > 100 µM (inactive)
COc1nc(=O)n(C2CC(F)C(CO)O2)cc1C (configuration not stated) | – | > 100 µM (inactive) | > 100 µM (inactive) | > 10 µM (inactive) | > 100 µM (inactive) | – | > 100 µM (inactive) | > 100 µM (inactive) | > 100 µM (inactive) | > 100 µM (inactive) | > 100 µM (inactive) | > 100 µM (inactive) | > 100 µM (inactive) | > 100 | > 100 µM (inactive) | > 100 µM (inactive) | > 100 µM (inactive) | > 100 µM (inactive) | > 100 µM (inactive)
N#Cc1cc([N+](=O)[O-])ccc1NC(=O)C(=O)C(C(=O)c1ccc2ccccc2c1)C1OCc2ccccc21 (configuration not stated) | – | 9.4 µM (inactive) | 22.3 µM (inactive) | 10.9 µM (inactive) | – | 7.01 µM (inactive) | 4.38 µM (inactive) | 7.46 µM (inactive) | 15.4 µM (inactive) | 7.29 µM (inactive) | – | 5.01 µM (inactive) | 12.9 µM (inactive) | 7.8 | 6.65 µM (inactive) | 5.2 µM (inactive) | – | 1.82 µM (inactive) | 3.06 µM (inactive)
C=CC1(c2ccc(OC)cc2)OCCCO1 | > 100 µM (inactive) | – | > 100 µM (inactive) | > 100 µM (inactive) | – | > 100 µM (inactive) | > 100 µM (inactive) | > 100 µM (inactive) | > 100 µM (inactive) | > 100 µM (inactive) | > 100 µM (inactive) | > 100 µM (inactive) | > 100 µM (inactive) | > 100 | > 100 µM (inactive) | > 100 µM (inactive) | > 100 µM (inactive) | > 100 µM (inactive) | > 100 µM (inactive)
C=C[C@@H](OCOCC[Si](C)(C)C)[C@@H](CC)OC(CCCOC(=O)C(C)(C)C)OC (some centres not stated) | 37.3 µM (inactive) | 53.7 µM (inactive) | 14.9 µM (inactive) | 21.4 µM (inactive) | – | 81.1 µM (inactive) | 54.2 µM (inactive) | 25.1 µM (inactive) | 24 µM (inactive) | – | 21.8 µM (inactive) | 21 µM (inactive) | 29.4 µM (inactive) | 22.1 | 36.7 µM (inactive) | 41.7 µM (inactive) | 19.4 µM (inactive) | – | 40.9 µM (inactive)
